Data published in patent publication US20230310406A1 (priority 2020, published 2023).
Where two headings read alike, the source gives them in different places.

How the values were obtained:
[1] = target: T1, adrenergic receptor Alpha 2C (Homo sapiens, UniProt P18825); assay: in vitro antagonistic activity at adrenergic Alpha 2C; assay type: biochemical
T1 sequence (P18825 1-462): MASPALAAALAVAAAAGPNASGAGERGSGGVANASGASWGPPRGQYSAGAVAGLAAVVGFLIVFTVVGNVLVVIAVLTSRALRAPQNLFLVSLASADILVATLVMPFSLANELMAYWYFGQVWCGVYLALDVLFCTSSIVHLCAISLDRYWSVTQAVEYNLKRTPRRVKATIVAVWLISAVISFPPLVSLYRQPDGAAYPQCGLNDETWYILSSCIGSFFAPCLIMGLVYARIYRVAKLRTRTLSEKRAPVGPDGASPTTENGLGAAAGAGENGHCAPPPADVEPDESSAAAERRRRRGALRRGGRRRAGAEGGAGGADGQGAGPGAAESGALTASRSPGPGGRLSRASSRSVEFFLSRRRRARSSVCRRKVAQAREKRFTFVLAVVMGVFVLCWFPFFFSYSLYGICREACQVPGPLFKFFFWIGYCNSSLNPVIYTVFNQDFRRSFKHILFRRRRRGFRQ

[2] = target: T2, cholinergic muscarinic receptor 5 (Homo sapiens, UniProt P08912); assay: in vitro antagonistic activity at muscarinic receptor 5; assay type: biochemical
T2 sequence (P08912 1-532): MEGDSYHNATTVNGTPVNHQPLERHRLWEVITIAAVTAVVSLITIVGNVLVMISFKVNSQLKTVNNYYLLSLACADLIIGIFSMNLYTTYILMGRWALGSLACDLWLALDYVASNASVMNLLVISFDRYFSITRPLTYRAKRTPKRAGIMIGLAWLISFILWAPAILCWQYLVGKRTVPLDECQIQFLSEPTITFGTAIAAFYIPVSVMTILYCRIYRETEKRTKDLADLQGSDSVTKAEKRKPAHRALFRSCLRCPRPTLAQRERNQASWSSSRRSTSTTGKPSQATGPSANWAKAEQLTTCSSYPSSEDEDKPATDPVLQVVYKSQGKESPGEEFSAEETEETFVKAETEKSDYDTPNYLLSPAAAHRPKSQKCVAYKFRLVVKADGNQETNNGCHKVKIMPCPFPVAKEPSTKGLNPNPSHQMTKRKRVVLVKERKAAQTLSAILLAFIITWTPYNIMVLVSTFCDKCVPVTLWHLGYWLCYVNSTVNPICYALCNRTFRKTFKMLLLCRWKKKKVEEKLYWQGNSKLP

[3] = target: Mu (MOP) receptor (Homo sapiens, UniProt P35372); assay type: biochemical
Chain of Mu (MOP) receptor (P35372 whole entry): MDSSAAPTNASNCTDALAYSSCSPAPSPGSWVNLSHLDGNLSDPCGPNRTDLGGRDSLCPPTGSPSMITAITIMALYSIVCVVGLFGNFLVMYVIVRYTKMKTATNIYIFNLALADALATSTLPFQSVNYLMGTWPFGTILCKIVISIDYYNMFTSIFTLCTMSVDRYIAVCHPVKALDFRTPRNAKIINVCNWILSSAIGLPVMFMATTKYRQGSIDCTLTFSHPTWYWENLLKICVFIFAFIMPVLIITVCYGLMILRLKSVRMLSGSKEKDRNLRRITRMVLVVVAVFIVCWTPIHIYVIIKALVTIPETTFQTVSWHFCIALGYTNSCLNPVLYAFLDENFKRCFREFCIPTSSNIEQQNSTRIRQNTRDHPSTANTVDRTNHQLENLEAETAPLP

[4] = target: serotonin receptor 1B (Homo sapiens, UniProt P28222); assay: in vitro antagonistic activity at serotonin receptor 1B; assay type: biochemical
Chain of serotonin receptor 1B (P28222 whole entry): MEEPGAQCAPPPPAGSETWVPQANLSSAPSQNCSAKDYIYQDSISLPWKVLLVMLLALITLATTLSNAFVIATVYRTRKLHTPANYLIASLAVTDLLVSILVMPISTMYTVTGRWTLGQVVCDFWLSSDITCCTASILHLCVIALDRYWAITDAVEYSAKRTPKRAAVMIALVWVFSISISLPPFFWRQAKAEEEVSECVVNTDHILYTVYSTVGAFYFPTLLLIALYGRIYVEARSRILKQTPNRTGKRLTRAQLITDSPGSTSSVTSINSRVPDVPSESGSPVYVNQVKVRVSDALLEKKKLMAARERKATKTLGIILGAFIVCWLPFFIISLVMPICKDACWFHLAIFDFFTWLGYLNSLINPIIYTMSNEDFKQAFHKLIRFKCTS

[5] = target: T3, cholinergic muscarinic receptor 1 (Homo sapiens, UniProt P11229); assay: in vitro antagonistic activity at muscarinic receptor 1; assay type: biochemical
T3 sequence (P11229 1-460): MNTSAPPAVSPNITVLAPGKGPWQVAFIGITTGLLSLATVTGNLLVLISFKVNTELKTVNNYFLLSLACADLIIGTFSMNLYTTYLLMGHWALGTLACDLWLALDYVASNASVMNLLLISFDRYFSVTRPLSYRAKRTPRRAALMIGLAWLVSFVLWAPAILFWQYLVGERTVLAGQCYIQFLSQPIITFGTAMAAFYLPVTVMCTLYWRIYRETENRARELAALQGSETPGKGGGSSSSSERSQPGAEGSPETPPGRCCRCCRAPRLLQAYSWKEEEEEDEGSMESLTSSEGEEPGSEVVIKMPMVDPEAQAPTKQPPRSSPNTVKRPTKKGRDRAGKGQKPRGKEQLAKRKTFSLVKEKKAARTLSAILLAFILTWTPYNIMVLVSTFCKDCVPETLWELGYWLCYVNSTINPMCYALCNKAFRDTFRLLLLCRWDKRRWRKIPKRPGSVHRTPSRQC

[6] = target: histamine H1 receptor (Homo sapiens, UniProt P35367); assay: in vitro antagonistic activity at histamine H1; assay type: biochemical
Chain of histamine H1 receptor (P35367 whole entry, species assumed): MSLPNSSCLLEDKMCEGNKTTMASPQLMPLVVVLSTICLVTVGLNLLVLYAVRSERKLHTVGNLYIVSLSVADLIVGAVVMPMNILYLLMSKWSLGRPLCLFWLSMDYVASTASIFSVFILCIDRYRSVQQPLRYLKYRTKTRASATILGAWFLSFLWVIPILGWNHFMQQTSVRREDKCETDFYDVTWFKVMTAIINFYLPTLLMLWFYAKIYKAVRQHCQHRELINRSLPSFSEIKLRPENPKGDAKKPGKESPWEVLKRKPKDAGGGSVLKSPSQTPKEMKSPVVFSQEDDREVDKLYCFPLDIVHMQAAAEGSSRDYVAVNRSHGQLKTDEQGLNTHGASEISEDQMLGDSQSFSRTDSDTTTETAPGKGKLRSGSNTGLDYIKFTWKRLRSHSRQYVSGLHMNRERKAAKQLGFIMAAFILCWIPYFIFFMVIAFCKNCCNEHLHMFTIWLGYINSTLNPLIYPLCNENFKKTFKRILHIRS

[7] = target: T4, adrenergic receptor Alpha 1B (Homo sapiens, UniProt P35368); assay: in vitro antagonistic activity at adrenergic Alpha 1B; assay type: biochemical
T4 sequence (P35368 1-520): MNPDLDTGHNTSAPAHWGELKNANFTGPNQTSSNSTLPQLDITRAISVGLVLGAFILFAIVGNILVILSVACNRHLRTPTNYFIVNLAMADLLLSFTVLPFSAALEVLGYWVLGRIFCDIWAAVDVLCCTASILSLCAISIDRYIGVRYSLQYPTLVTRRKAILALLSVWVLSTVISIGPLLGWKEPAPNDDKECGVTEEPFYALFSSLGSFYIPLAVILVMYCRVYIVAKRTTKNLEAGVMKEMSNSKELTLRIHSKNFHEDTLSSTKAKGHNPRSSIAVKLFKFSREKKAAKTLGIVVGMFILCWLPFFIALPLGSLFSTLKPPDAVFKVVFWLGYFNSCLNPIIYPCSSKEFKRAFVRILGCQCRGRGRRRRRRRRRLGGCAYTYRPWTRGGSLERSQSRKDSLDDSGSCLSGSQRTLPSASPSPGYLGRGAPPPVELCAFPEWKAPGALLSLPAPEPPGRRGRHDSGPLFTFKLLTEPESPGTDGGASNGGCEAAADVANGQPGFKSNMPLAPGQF

[8] = target: T5, serotonin receptor 1A (Homo sapiens, UniProt P08908); assay: in vitro antagonistic activity at serotonin receptor 1A; assay type: biochemical
T5 sequence (P08908 1-422): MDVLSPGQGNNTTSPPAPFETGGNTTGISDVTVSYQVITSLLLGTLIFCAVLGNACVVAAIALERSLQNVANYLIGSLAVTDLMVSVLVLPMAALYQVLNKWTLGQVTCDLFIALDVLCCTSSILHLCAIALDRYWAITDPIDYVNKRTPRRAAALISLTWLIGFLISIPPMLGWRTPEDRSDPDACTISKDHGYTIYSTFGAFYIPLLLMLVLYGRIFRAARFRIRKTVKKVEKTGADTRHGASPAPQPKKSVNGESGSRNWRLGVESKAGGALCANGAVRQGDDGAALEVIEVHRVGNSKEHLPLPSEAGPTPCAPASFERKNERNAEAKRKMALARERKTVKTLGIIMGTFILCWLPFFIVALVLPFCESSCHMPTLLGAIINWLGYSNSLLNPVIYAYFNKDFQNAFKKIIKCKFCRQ

[9] = target: Kappa (KOP) receptor (Homo sapiens, UniProt P41145); assay type: biochemical
Chain of Kappa (KOP) receptor (P41145 whole entry): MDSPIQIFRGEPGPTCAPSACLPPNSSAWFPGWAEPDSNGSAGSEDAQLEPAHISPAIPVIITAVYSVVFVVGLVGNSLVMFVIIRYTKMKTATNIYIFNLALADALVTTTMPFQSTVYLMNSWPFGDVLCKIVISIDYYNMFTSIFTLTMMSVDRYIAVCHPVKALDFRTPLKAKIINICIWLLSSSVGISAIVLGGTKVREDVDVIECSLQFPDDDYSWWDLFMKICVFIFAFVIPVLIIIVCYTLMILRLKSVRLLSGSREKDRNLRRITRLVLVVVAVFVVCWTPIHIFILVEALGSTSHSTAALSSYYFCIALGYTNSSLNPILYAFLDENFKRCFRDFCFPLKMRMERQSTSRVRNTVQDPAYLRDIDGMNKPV

[10] = target: T6, dopamine D4 receptor (Homo sapiens, UniProt P21917); assay: in vitro antagonistic activity at dopamine D4; assay type: biochemical
T6 sequence (P21917 1-419): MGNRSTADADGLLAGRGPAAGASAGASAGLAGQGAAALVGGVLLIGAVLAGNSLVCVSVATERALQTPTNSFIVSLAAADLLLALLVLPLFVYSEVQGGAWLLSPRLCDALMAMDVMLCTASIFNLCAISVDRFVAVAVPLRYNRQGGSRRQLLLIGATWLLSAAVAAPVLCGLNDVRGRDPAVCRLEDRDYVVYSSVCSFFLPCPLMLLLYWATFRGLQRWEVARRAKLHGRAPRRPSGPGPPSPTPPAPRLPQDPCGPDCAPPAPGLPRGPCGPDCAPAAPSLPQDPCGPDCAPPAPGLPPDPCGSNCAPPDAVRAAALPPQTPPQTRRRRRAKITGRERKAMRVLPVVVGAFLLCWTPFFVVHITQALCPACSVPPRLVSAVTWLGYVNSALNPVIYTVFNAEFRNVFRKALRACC

[11] = target: cholinergic muscarinic receptor 3 (Homo sapiens, UniProt P20309); assay: in vitro antagonistic activity at muscarinic receptor 3; assay type: biochemical
Chain of cholinergic muscarinic receptor 3 (P20309 whole entry): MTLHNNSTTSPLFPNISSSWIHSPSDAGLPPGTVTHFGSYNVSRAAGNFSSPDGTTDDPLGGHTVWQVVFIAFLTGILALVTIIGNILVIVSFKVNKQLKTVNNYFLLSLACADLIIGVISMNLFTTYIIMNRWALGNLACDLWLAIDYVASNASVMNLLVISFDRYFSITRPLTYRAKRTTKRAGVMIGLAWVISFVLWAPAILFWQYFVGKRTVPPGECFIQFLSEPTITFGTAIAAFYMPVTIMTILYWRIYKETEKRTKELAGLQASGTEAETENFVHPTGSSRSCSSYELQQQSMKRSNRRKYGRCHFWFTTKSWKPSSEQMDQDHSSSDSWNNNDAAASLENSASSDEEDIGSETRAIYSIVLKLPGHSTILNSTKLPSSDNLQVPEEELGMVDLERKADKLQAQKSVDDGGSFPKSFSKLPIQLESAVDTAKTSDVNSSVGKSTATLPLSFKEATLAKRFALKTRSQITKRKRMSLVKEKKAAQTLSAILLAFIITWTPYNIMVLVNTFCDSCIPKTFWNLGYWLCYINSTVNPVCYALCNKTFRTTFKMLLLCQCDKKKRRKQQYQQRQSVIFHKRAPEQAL

[12] = target: ORL1 (NOP) receptor (Homo sapiens, UniProt P41146); assay: in vitro pharmacology at ORL1 receptor; assay type: biochemical
Chain of ORL1 (NOP) receptor (P41146 whole entry): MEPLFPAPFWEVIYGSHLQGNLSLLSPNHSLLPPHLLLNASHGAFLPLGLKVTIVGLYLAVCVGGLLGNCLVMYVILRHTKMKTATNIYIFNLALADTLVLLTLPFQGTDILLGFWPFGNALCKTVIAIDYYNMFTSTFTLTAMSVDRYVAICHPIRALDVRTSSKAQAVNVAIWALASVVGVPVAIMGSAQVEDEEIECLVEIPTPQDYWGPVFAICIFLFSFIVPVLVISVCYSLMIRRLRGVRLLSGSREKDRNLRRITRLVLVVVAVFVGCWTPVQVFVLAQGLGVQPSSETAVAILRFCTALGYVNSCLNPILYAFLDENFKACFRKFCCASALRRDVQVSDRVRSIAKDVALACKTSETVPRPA

[13] = system: Sigma opiate sites; assay: in vitro affinity at sigma opiate sites; assay type: binding
[14] = target: T7, adrenergic receptor Alpha 2B (Homo sapiens, UniProt P18089); assay: in vitro antagonistic activity at adrenergic Alpha 2B; assay type: biochemical
T7 sequence (P18089 1-450): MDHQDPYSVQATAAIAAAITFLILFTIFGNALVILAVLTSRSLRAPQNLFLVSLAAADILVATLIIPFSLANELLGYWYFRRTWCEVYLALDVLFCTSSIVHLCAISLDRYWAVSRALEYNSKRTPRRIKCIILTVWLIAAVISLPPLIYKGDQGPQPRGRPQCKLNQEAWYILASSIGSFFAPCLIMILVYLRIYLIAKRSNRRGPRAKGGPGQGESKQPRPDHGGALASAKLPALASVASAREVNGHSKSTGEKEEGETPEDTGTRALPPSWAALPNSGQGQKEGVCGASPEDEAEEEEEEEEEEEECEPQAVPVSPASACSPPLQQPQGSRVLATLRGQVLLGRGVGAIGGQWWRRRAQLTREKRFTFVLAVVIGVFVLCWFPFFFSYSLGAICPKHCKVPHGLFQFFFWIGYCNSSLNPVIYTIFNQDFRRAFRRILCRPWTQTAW

[15] = target: T8, cholinergic muscarinic receptor 4 (Homo sapiens, UniProt P08173); assay: in vitro antagonistic activity at muscarinic receptor 4; assay type: biochemical
T8 sequence (P08173 1-479): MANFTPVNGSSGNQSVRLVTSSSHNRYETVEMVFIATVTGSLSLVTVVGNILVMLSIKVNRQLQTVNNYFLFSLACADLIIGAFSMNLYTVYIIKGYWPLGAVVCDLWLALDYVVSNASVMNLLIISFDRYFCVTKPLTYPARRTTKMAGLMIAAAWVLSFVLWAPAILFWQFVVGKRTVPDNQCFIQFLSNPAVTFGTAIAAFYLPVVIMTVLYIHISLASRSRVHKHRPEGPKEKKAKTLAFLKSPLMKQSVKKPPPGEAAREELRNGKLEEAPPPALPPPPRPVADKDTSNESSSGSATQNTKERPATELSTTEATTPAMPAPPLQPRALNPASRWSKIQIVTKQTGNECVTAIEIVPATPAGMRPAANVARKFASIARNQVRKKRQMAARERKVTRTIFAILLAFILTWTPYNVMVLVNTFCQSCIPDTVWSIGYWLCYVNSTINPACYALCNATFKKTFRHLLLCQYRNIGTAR

| Compound | activity at adrenergic receptor Alpha 2C [1] | activity at cholinergic muscarinic receptor 5 [2] | Receptor Mu (MOP): mode of action [3] | activity at serotonin receptor 1B [4] | activity at cholinergic muscarinic receptor 1 [5] | activity at histamine H1 receptor [6] | activity at adrenergic receptor Alpha 1B [7] | activity at serotonin receptor 1A [8] | Receptor Kappa (KOP): mode of action [9] | activity at dopamine D4 receptor [10] | activity at cholinergic muscarinic receptor 3 [11] | Receptor ORL1 (NOP): mode of action [12] | Receptor ORL1 (NOP): mode of action ([12]; listed as compound 1) | Receptor Sigma: affinity ([13]; listed as compound 1) | activity at adrenergic receptor Alpha 2B [14] | activity at cholinergic muscarinic receptor 4 [15] | Receptor Sigma: affinity [13] |
| --- | --- | --- | --- | --- | --- | --- | --- | --- | --- | --- | --- | --- | --- | --- | --- | --- | --- |
| CCC(=O)NC1CC(C)N(CCc2ccccc2)CC1C (stereo not drawn) [Compound 1, 1-(2-phenylethyl)2,5-dimethyl-4-propionilaminopiperidine] | antagonistic activity | antagonistic activity | partial agonist | antagonistic activity | antagonistic activity | antagonistic activity | antagonistic activity | antagonistic activity | Antagonist | antagonistic activity | antagonistic activity | Antagonist | antagonist | activity | antagonistic activity | antagonistic activity | – |
| O=C1CC[C@@]2(O)[C@H]3Cc4ccc(O)c5c4[C@@]2(CCN3CC2CC2)[C@H]1O5 [Naltrexone] | – | – | – | – | – | – | – | – | – | – | – | – | – | – | – | – | Weak |
| C=CCN1CC[C@]23c4c5ccc(O)c4O[C@H]2C(=O)CC[C@@]3(O)[C@H]1C5 [Naloxone] | – | – | – | – | – | – | – | – | – | – | – | – | – | – | – | – | Weak |
